The source of these data is ChEMBL document CHEMBL3991601, “The target landscape of clinical kinase drugs” (Science, 2017).

Molecules are shown by their SMILES. Active and inactive are the calls of the source. For most assays here, no stated cut-off is given here; in the data, actives have a measured Kd and inactives only a lower limit.

Assay [1] addresses T1, Serine/threonine-protein kinase Nek2 (Homo sapiens, UniProt P51955).
T1 sequence (P51955 whole entry): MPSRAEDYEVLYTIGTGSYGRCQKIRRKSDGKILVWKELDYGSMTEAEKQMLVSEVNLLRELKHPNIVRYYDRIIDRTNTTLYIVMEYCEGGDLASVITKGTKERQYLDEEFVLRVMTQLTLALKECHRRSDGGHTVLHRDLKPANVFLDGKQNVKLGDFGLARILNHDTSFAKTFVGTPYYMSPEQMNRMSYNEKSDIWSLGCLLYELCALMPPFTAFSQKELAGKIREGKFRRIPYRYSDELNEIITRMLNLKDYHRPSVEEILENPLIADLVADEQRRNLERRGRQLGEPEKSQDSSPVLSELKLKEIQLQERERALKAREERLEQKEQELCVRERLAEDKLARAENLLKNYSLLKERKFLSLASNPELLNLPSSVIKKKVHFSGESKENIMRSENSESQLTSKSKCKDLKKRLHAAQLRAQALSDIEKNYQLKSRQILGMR

In assay [2] the target is DnaJ homolog subfamily A member 1 (Homo sapiens, UniProt P31689).
Chain of DnaJ homolog subfamily A member 1 (P31689 whole entry): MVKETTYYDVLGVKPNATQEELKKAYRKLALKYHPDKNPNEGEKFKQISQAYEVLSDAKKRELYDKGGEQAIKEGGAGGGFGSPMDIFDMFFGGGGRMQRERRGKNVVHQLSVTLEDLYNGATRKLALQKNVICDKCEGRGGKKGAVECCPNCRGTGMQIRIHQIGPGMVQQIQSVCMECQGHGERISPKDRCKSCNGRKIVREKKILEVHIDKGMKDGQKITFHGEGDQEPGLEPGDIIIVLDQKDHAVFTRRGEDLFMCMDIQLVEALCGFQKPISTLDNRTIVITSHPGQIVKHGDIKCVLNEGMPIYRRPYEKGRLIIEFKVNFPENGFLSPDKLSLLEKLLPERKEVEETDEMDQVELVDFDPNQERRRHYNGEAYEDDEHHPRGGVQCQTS
The target in assay [3] is Myosin light chain kinase, smooth muscle (Homo sapiens, UniProt Q15746).
Chain of Myosin light chain kinase, smooth muscle (Q15746 whole entry): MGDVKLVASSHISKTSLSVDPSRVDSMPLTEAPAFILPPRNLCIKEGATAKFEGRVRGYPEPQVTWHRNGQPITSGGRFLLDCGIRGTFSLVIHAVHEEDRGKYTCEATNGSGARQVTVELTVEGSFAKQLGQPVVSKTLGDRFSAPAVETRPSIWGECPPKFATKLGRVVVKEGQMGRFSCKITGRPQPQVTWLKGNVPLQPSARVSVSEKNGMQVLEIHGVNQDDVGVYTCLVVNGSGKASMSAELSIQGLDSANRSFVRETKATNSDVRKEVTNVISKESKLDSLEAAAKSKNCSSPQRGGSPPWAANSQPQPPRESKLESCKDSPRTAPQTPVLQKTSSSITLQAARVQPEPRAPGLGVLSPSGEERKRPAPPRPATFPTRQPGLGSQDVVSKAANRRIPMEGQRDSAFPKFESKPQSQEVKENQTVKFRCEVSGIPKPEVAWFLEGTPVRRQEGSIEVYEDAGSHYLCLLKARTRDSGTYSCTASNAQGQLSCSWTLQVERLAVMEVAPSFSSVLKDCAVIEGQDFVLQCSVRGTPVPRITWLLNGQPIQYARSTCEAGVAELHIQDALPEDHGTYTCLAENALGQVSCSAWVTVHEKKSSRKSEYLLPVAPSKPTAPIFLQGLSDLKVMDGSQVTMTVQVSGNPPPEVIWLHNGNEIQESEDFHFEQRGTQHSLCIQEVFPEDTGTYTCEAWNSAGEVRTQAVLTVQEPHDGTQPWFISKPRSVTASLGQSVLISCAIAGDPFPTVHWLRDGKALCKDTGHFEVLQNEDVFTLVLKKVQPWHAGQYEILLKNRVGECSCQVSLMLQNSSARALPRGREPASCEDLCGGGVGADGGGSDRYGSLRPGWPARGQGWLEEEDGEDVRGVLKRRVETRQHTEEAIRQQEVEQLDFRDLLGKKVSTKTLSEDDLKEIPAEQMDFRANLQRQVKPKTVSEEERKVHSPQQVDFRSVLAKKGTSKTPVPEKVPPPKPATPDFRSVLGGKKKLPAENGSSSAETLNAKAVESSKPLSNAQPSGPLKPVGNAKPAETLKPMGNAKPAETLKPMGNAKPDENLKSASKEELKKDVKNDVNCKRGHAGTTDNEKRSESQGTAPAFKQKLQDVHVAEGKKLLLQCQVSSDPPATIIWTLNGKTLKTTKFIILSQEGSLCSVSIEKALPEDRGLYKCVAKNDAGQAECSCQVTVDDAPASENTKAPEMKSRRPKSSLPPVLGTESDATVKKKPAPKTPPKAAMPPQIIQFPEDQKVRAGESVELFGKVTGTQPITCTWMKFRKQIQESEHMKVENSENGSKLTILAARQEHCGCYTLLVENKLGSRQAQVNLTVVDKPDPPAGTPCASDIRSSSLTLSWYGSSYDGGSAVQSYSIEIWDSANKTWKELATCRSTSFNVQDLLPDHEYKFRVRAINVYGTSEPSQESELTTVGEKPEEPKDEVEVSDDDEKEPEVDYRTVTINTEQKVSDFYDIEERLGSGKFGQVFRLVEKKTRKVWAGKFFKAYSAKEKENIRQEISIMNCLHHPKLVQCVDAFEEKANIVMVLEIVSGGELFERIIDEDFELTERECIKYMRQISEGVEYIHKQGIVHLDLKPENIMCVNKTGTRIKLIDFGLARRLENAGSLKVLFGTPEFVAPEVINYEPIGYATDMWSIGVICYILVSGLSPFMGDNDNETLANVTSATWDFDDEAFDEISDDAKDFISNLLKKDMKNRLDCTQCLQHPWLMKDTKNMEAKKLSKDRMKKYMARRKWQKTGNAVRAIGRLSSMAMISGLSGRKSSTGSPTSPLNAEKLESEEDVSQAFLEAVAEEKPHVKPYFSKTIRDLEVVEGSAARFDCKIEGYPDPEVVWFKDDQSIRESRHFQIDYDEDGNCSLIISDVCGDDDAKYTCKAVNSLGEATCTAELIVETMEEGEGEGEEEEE
The target in assay [4] is T2, Delta(24)-sterol reductase (Homo sapiens, UniProt Q15392).
T2 sequence (Q15392 whole entry): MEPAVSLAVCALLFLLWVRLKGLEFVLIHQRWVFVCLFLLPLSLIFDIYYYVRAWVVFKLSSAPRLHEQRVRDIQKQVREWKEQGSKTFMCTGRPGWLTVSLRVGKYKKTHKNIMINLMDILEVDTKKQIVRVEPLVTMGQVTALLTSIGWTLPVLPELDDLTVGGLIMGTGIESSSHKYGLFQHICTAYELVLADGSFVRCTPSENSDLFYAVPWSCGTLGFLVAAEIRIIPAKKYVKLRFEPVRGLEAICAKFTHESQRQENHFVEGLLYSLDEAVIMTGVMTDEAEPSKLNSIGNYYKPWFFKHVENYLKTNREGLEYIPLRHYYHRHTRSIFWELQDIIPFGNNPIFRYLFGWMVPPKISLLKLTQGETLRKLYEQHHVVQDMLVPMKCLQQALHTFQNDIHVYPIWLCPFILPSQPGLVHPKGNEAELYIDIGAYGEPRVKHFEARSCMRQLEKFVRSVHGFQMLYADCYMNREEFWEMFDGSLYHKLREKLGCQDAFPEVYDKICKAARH

Assay [5] addresses Tyrosine-protein kinase JAK1 (Homo sapiens, UniProt P23458).
The target in assay [6] is Platelet-derived growth factor receptor beta (Homo sapiens, UniProt P09619).
Chain of Platelet-derived growth factor receptor beta (P09619 whole entry): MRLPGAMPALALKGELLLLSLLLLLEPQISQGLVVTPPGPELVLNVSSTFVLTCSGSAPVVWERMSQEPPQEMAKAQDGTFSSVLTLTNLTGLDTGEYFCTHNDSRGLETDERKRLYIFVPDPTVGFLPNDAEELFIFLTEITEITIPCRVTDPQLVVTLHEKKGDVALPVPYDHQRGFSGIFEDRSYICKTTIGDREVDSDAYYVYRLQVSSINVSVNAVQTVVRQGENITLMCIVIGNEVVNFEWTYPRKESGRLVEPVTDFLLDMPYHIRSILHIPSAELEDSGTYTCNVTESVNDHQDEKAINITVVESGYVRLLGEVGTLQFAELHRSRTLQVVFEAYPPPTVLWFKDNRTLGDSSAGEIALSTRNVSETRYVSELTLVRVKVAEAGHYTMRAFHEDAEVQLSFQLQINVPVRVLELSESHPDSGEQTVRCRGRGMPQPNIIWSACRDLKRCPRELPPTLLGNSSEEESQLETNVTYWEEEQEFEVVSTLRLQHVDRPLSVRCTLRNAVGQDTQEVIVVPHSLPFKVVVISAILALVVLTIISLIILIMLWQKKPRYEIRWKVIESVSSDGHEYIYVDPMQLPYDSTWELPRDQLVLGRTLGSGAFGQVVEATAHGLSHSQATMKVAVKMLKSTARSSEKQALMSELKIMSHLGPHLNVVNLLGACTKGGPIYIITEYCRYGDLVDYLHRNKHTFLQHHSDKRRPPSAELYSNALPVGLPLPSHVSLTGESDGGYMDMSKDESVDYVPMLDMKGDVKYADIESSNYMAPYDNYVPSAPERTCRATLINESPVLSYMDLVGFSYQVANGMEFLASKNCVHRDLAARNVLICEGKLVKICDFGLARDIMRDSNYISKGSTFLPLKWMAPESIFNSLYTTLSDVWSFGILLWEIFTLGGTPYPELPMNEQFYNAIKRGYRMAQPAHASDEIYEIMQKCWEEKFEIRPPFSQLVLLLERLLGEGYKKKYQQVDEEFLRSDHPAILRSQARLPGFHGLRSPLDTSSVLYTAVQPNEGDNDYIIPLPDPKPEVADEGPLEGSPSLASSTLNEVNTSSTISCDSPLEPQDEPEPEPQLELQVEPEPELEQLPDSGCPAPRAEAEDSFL
For assay [7], the target named is Citron Rho-interacting kinase (Homo sapiens, UniProt O14578).
Assay [8] addresses ATP-dependent RNA helicase DDX3X (Homo sapiens, UniProt O00571).
Assay [9] deals with Cyclin-dependent kinase 13 (Homo sapiens, UniProt Q14004).
For assay [10], the target named is T3, Ras-related protein Rab-27A (Homo sapiens, UniProt P51159).
T3 sequence (P51159 whole entry): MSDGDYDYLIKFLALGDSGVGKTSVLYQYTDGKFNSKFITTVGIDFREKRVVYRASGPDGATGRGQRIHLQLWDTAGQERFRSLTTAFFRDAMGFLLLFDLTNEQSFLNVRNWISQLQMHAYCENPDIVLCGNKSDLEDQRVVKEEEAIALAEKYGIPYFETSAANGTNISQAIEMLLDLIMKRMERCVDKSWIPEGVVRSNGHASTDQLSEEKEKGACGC

Another assay deals with Ephrin type-A receptor 4 (Homo sapiens, UniProt P54764).
Chain of Ephrin type-A receptor 4 (P54764 whole entry): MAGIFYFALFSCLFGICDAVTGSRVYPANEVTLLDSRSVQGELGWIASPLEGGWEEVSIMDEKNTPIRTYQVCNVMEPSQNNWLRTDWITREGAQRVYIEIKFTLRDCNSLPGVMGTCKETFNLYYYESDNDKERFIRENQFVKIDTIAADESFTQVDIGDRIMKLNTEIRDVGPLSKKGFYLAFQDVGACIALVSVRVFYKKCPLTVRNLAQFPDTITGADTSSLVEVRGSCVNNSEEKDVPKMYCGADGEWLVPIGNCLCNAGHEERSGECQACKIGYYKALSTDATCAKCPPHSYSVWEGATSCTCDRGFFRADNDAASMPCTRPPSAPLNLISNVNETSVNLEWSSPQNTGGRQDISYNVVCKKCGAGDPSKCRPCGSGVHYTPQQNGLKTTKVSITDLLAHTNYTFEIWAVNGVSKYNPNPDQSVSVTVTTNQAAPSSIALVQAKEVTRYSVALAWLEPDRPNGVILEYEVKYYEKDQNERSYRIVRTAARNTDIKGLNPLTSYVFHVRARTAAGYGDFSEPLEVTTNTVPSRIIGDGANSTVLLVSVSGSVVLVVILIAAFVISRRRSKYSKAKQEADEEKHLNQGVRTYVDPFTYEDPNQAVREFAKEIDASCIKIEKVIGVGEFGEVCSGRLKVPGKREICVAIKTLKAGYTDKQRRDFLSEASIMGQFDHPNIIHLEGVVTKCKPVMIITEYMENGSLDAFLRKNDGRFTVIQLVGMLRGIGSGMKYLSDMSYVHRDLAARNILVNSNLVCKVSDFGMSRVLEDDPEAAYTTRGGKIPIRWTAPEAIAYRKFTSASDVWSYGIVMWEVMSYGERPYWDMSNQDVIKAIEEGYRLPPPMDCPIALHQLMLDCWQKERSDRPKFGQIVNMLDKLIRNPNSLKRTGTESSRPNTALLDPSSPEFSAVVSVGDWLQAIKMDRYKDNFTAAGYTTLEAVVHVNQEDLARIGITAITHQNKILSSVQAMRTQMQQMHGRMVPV
The target in assay [11] is Mitogen-activated protein kinase kinase kinase 4 (Homo sapiens, UniProt Q9Y6R4).
For assay [12], the target named is T4, Serine/threonine-protein kinase D2 (Homo sapiens, UniProt Q9BZL6).
T4 sequence (Q9BZL6 whole entry): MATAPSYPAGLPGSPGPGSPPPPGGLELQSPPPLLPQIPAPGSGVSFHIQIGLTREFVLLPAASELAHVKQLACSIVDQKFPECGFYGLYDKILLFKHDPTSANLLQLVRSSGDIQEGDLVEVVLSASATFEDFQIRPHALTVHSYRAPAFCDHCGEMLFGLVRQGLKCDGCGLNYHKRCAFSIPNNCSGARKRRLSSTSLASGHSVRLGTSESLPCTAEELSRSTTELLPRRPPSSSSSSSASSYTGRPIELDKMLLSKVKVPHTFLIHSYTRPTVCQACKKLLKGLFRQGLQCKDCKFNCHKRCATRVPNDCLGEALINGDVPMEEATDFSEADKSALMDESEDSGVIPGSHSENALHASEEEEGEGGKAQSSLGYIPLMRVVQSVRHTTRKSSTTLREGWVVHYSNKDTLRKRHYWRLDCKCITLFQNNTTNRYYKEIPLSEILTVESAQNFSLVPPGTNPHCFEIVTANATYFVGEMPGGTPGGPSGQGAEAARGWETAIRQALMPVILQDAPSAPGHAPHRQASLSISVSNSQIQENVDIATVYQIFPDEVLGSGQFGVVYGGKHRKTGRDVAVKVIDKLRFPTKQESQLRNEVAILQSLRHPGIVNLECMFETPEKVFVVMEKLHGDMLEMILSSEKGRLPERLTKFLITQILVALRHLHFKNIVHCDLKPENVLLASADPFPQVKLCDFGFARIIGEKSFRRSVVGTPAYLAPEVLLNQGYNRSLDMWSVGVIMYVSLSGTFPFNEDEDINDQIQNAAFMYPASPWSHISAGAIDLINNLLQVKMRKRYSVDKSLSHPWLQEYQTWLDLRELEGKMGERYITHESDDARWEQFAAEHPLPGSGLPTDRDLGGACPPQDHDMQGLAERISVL

Assay [13] has as its target Mitotic checkpoint serine/threonine-protein kinase BUB1 (Homo sapiens, UniProt O43683).

Chain of ATP-dependent RNA helicase DDX3X (O00571 whole entry): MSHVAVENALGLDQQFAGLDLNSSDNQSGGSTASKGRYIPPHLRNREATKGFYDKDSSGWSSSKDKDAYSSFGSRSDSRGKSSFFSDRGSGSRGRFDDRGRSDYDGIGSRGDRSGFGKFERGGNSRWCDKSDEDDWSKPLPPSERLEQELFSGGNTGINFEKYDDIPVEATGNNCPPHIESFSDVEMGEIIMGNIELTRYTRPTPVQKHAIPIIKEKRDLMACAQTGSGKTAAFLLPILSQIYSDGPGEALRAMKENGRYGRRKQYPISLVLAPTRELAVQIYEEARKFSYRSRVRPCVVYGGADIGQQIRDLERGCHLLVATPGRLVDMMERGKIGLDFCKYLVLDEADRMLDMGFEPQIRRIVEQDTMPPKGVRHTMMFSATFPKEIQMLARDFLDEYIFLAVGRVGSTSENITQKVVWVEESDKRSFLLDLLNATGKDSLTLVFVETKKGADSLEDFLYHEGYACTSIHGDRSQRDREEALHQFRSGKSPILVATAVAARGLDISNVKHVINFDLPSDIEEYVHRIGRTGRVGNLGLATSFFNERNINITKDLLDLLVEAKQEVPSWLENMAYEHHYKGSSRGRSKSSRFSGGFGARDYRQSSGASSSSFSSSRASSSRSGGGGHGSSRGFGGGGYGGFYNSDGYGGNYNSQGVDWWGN

As to `COc1ccc(-c2ccc3c(N4CCOC[C@@H]4C)nc(N4CCOC[C@@H]4C)nc3n2)cc1CO` [AZD-8055], the Kd in assay [1], in [2], in assay [3], in assay [4], in assay [5] and in assay [6] was > 30 µM (inactive) each time. Besides, the Kd (in assay [7]; in [8]; in [9]; in assay [10]; at Ephrin type-A receptor 4; in assay [11]) was > 30 µM (inactive) in each case. Further, the Kd in assay [12] and in assay [13] was > 30 µM (inactive) throughout.

Turning to `O=C(O)[C@]1(Cc2cccc(Nc3nccs3)n2)CC[C@@H](Oc2cccc(Cl)c2F)CC1` [MK-5108], the Kd in assay [1], in assay [2], in assay [3], in assay [4], in [5] and in [6] was > 30 µM (inactive) in each case. Further, the Kd (in assay [7]; in assay [8]; in assay [9]; in [10]; at Ephrin type-A receptor 4; in assay [11]) was > 30 µM (inactive) each time. Besides, the Kd in [12] and in assay [13] was > 30 µM (inactive) each time.

On to `COc1cc2nccc(Oc3ccc(NC(=O)Nc4cc(C)on4)c(Cl)c3)c2cc1OC` [TIVOZANIB], for which the Kd in [1] was > 30 µM (inactive); in assay [2] it was > 30 µM (inactive); in assay [3], > 30 µM (inactive); in assay [4], > 30 µM (inactive); in assay [5], > 30 µM (inactive); in assay [6] it was 2.41 µM (active). Besides, the Kd in assay [7] is > 30 µM (inactive); in assay [8] it was > 30 µM (inactive); in assay [9], > 30 µM (inactive); in assay [10] it was > 30 µM (inactive); at Ephrin type-A receptor 4, 5.56 µM (active); in assay [11] it was > 30 µM (inactive). In addition, the Kd in [12] and in assay [13] was > 30 µM (inactive) throughout.

`COc1cc(N2CCC(N3CCN(C)CC3)CC2)ccc1Nc1ncnc(Nc2ccccc2S(=O)(=O)C(C)C)n1` [ASP-3026]: the Kd in assay [1], in [2], in assay [3], in assay [4], in assay [5] and in assay [6] was > 30 µM (inactive) throughout. For the same compound, the Kd (in assay [7]; in assay [8]; in assay [9]; in assay [10]; at Ephrin type-A receptor 4; in assay [11]) was > 30 µM (inactive) each time. Besides, the Kd in [12] is 2.67 µM (active); in [13], > 30 µM (inactive).

Regarding `CN1CCC(CNc2ccc3ncc(-c4cccc(OC(F)(F)F)c4)n3n2)CC1` [SGI-1776], the Kd in assay [1] is > 30 µM (inactive); in assay [2], > 30 µM (inactive); in assay [3] it was > 30 µM (inactive); in [4] it was > 30 µM (inactive); in assay [5] it was > 30 µM (inactive); in [6] it was 1.61 µM (active). Further, the Kd (in assay [7]; in assay [8]; in assay [9]; in assay [10]; on Ephrin type-A receptor 4; in assay [11]) was > 30 µM (inactive) in each case. Further, the Kd in assay [12] and in assay [13] was > 30 µM (inactive) each time.

On to `CC(=O)Nc1cccc(-n2c(=O)n(C3CC3)c(=O)c3c(Nc4ccc(I)cc4F)n(C)c(=O)c(C)c32)c1` [TRAMETINIB], for which the Kd in assay [1], in assay [2], in [3], in [4], in [5] and in [6] was > 30 µM (inactive) throughout. Besides, the Kd (in [7]; in [8]; in [9]; in assay [10]; on Ephrin type-A receptor 4; in assay [11]) was > 30 µM (inactive) each time. Also, the Kd in assay [12] and in [13] was > 30 µM (inactive) each time.

As to `CCCS(=O)(=O)Nc1ccc(F)c(C(=O)c2c[nH]c3ncc(-c4ccc(Cl)cc4)cc23)c1F` [VEMURAFENIB], the Kd in assay [1], in assay [2], in assay [3], in assay [4], in assay [5] and in [6] was > 30 µM (inactive) throughout. In addition, the Kd (in [7]; in [8]; in [9]; in assay [10]; on Ephrin type-A receptor 4; in assay [11]) was > 30 µM (inactive) throughout. Also, the Kd in assay [12] and in assay [13] was > 30 µM (inactive) throughout.

Consider `COCCNCc1ccc(-c2cc3nccc(Oc4ccc(NC(=S)NC(=O)Cc5ccc(F)cc5)cc4F)c3s2)nc1` [GLESATINIB], for which the Kd in [1] is > 30 µM (inactive); in [2] it was > 30 µM (inactive); in [3] it was > 30 µM (inactive); in [4], > 30 µM (inactive); in assay [5], > 30 µM (inactive); in assay [6] it was 2.78 µM (active). For the same compound, the Kd (in [7]; in assay [8]; in assay [9]; in [10]; on Ephrin type-A receptor 4; in assay [11]) was > 30 µM (inactive) throughout. Also, the Kd in assay [12] and in [13] was > 30 µM (inactive) in each case.
